# Experimental data from US7884081B2, “Methods of modulating tubulin deacetylast activity” (The J. David Gladstone Institutes, priority 2002, dated 2011).
# No end group written: not given here.
# Tests used:
# SIRT2 [1] = target: T1, SIRT2 (Homo sapiens, UniProt Q8IXJ6); experiment: In vitro HDAC activity assay with recombinant protein (ribavirin); format: biochemical; set-up: 6xHis; factor Xa protease cleavage site; made in house; host or cells: E. coli DH5αFIQ
# T1 sequence (Q8IXJ6 1-389): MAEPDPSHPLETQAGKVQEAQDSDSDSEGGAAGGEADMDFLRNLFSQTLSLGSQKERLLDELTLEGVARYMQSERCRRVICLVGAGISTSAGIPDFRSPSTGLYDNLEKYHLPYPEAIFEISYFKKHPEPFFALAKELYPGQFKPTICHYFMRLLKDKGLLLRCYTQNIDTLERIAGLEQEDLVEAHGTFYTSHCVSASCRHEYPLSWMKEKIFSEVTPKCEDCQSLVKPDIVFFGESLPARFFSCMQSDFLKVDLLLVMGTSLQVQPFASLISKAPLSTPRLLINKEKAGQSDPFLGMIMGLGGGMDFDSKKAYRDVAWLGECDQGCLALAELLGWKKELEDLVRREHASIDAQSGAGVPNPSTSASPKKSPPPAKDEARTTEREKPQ
# Procedure: (§1) Inhibitory activity of ribavirin against SIRT2 and SIRT3 proteins was tested using recombinant SIRT2 proteins and an in vitro assay. Ribavirin was incubated with recombinant protein only in buffer for 10 minutes; then NAD and substrate were added to start the reaction. Reactions were incubated for 2 hours at room temperature. Reactions were stopped by adding 25 μL stop buffer (0.1M HC1, 0.16M acetic acid) and vortexing briefly. Ethyl acetate extraction isolated any liberated acetyl groups. Ethyl acetate (0.5 ml) was added, mixture was vortexed for 15 seconds and spun at 14,000 rpm for 5 minutes. The upper phase (0.4 ml) was added to 5 mL scintillation fluid (Econofluor-2; Packard) and counted.
# SIRT3 = SIRT3 (Homo sapiens, UniProt Q9NTG7); experiment: as above; format: biochemical
# Chain of SIRT3 (Q9NTG7 whole entry): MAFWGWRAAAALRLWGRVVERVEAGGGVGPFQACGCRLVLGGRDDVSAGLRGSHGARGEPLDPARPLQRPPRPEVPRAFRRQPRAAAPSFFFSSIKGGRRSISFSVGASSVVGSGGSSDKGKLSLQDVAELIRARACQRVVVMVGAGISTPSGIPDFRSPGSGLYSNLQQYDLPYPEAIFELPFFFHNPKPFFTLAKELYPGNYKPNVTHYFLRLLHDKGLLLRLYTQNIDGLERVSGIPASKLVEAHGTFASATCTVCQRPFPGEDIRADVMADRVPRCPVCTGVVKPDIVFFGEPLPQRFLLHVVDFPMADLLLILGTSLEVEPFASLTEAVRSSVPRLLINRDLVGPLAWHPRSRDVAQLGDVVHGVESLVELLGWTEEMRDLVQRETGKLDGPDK
# Procedure: as §1
# SIRT2 [2] = target: T1, SIRT2; experiment: Histone deacetylase assay, immunoprecipitated SIRT2-FLAG on [3H]acetylated histone H4 peptide; format: biochemical
# Procedure: HEK 293T cells were transfected by calcium phosphate DNA precipitation method and lysed 48 hours post-transfection in low stringency lysis buffer (50 mM Tris-HCl, pH 7.5, 0.5 mM EDTA, 0.5% NP-40, 150 mM NaCl) in the presence of protease inhibitor cocktail (Complete, Roche Molecular Biochemicals, Indianapolis, Ind.). FLAG tagged proteins were immunoprecipitated with anti-FLAG M2 agarose affinity gel (Sigma, St. Louis, Mo.) and GFP-tagged proteins were immunoprecipitated with anti-GFP monoclonal antibody (Sigma, St. Louis, Mo.) in the presence of Protein G Sepharose (Amersham Pharmacia Biotech, Inc., Piscataway, N.J.) for 2 hours at 4° C. Immunoprecipitated material was washed 3 times in low stringency lysis buffer and one time in SIRT2 deacetylase buffer (50 mM Tris-HCl, pH 9.0, 4 mM MgCl2, and 0.2 mM dithiothreitol (DTT)).
# Immunoprecipitated material and recombinant SIRT2 were resuspended in 100 μL of SIRT2 deacetylase buffer containing NAD (Sigma, St. Louis, Mo.) and [^3H] acetylated histone H4 peptide (a.a. 1-23) (Emiliani et al., 1998). TSA (WACO BioProducts, Richmond, Va.) was resuspended in dimethyl sulfoxide (DMSO) was further diluted in DMSO and added to reactions to desired concentration. […] After centrifugation for 5 minutes, 400 μL of the ethyl acetate fraction was mixed with 5 ml scintillation fluid and counted.
# α-tubulin = conditions: treatment of cells with TSA; cited from earlier work
# SIRT2 [3] = target: T1, SIRT2; experiment: Ex vivo tubulin deacetylation assay, SIRT2-FLAG with cellular lysate, western blot for acetylated tubulin; format: biochemical; conditions: 1 mM NAD
# Procedure: Immunoprecipitations were resuspended in 100 μl SIRT deacetylase buffer containing 50 μg total cellular lysate from untransfected HEK 293T cells and 1 mM NAD. Reactions containing 400 nM TSA or 5 mM nicotinamide (Sigma, St. Louis, Mo.) were pre-incubated at room temperature with all components of the reaction in the absence of NAD for 10 minutes, Following the pre-incubation, the enzymatic reactions were started with the addition of NAD followed by incubation for 2 hours at room temperature with constant agitation. Reactions were stopped by the addition of 50 μl 6× SDS-polyacrylamide gel electrophoresis (PAGE) buffer. Beads were pelleted by centrifugation at 14,000 rpm for 10 minutes and 10 μl of each supernatant was separated on 10% SDS-PAGE gels and western blotted as described above.
# In this assay, HEK 293T cells were transfected with SIRT2-FLAG followed by immunoprecipitation of the FLAG-tagged protein (FIG. 3A). The immunoprecipitated material was separated into two fractions. The first fraction was used to measure HDAC activity using the acetylated histone H4 peptide. […] The extent of acetylation/deacetylation of α-tubulin was determined by western blotting analysis using a specific antisera for acetylated α-tubulin. […]
# [4] = test system: GFP-MIZ-1 sub-cellular distribution in HeLa cells; experiment: GFP-MIZ-1 sub-cellular localization by immunofluorescence in transfected HeLa cells; format: cell-based; conditions: for percentage of cells with GFP-MIZ-1 localized in the cytoplasm: TSA treatment
# Procedure: HeLa cells grown on coverslips were transfected with LipofectAMINE reagent (Gibco Invitrogen Corp., Carlsbad, Calif.) for 8 hours according to manufacturer's protocol or by calcium phosphate DNA precipitation method. Transfected cells were incubated for 12 hours with 400 nM TSA (WACO BioProducts, Richmond, Va.) 24 hours after transfection. Cells were washed twice for 10 minutes in PBS and fixed for 10 minutes in 4% formaldehyde (EMS, Ft. Washington, Pa.) followed by permeabilization for 10 minutes in 0.5% Triton-X-100 in PBS. Following three washes for 10 minutes in PBS, cells were incubated for 10 minutes in 10% BSA, and incubated for 1 hour with anti-acetylated tubulin 6-11B-1, anti-tubulin B-5-1-2 diluted 1:1000, or anti-FLAG M2 diluted 1:500 in 0.1% TWEEN-20™ non-ionic detergent. Cells were washed three times in 0.1% TWEEN-20™ non-ionic detergent, followed by incubation with goat anti-mouse IgG (Fc specific) TRITC-conjugated antibody (Sigma, St. Louis) diluted 1:100 in 0.1% TWEEN-20™ non-ionic detergent. Following incubation cells were incubated for 5 minutes in 20 mg/ml 4′,6′-diamidino-2-phenylindole hydrochloride (DAPI) washed three times in phosphate-buffered saline (PBS), once in ddH2O, and mounted with Gel Mount (Biomeda Corp., Foster City, Calif.). Slides were visualized on a Nikon E600 microscope system equipped with a SPOT 2 Digital Camera. Confocal images were acquired by laser-scanning confocal microscopy with an Olympus BX60 microscope equipped with a Radiance 2000 confocal setup (BioRad, Hercules, Calif.).
# Transfected cells were counted as either GFP-MIZ-1 localized completely nuclear or with partial cytoplasmic retention. Cell counts were derived from inspection of at least 150 transfected cells from six microscopic fields. […] Data set is representative of three independent experiments.
# SIRT1 protein = conditions: cited from earlier work
# [5] = test system: acetylated tubulin in HeLa, 293T and HepG2 cells; experiment: Microtubule destabilizing drug treatment, western blot for acetylated tubulin; format: cell-based; conditions: 10 μg/mL colchicine or 1 μg/mL nocodazole for 6 hours
# From the text: Lysates were equilibrated by total protein concentration and were separated on 10% SDS-PAGE gels and western blotted as described above.
# Cells were harvested and lysates separated by SDS-PAGE and western blotting using specific antisera for acetylated tubulin and tubulin.
# recombinant Hst2p = recombinant Hst2p (Saccharomyces cerevisiae, UniProt P53686); experiment: Tubulin peptide deacetylation kinetics (HPLC); format: biochemical, yeast; conditions: 500 μM NAD, 37° C.
# Chain of recombinant Hst2p (P53686 whole entry): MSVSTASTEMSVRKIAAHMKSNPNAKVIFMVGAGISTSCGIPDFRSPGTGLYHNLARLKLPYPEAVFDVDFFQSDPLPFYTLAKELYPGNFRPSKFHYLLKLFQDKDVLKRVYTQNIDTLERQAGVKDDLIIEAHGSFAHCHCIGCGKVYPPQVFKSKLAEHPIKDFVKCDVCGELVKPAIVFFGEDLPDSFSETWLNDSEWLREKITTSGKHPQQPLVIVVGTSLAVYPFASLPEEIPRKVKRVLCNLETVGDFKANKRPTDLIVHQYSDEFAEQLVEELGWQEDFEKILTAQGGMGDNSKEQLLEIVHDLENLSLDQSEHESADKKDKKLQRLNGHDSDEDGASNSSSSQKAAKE
# Procedure: Increasing concentrations of tubulin peptide (20-900 μM), and 800 μM NAD were reacted in the presence of 0.8 to 1 μM recombinant SIRT2 in 50 mM Tris, pH 7.5, 1 mM DTT, and 10% methanol at 37° C. For Hst2p reactions, tubulin peptides and 500 μM NAD were reacted in the presence of 9 to 19 μM recombinant Hst2p under the same conditions. Reactions were quenched with trifluoroacetic acid (TFA) to a final concentration of 1%. Time points were chosen such that initial velocity conditions were observed. Samples were injected into the high performance liquid chromatography (HPLC) with a Beckman C18 analytical column. Upon injection, the system was run isocratically with solvent A (0.05% TFA in H2O), followed by a gradient of 0-10% solvent B (0.02% TFA in CH3CN) for 4 minutes, and followed by a gradient of 10-23% solvent B for 23 minutes. Deacetylated and acetylated peptides eluted at 16% and 18% CH3CN, respectively. Elution of substrates and products were monitored by measuring the absorbance at 214 nm, and corresponding peaks were integrated using the Beckman System Gold Nouveau software. The amount of product was quantified by calculating the percentage of the deacetylated tubulin peptide from the total tubulin peptide based upon their integration values. […]
# SIRT2 [6] = target: T1, SIRT2; experiment: Tubulin peptide deacetylation kinetics (HPLC); format: biochemical; set-up: 6xHis; factor Xa protease cleavage site; made in house; host or cells: E. coli DH5αFIQ; conditions: SIRT2, 800 μM NAD, 37° C.
compound,measurement,setting,value
"NC(=O)c1ncn([C@@H]2O[C@H](CO)[C@@H](O)[C@H]2O)n1 [Ribavirin, 1-β-D-ribofuranosyl-1H-1,2,4-triazole-3-carboxamide]",inhibition at 25 µM,SIRT2 [1],~50%
same,effect on SIRT3 in vitro HDAC activity,SIRT3,no effect
"CC(/C=C/C(=O)NO)=C\[C@@H](C)C(=O)c1ccc(N(C)C)cc1 [TSA, Trichostatin A]",HDAC activity of SIRT2,"SIRT2 [2]; immunoprecipitated SIRT2-FLAG, 1 mM NAD, increasing concentrations of TSA (100-1600 nM)",No change
same,acetylation of α-tubulin in cells,α-tubulin,induces hyperacetylation
same,tubulin deacetylation by SIRT2,SIRT2 [3]; 400 nM TSA,had no effect
same,localization of GFP-MIZ-1,"[4]; HeLa cells treated with TSA (400 nM, 12 hours)",distinct shift in localization of GFP-MIZ-1 from the nucleus to the cytoplasm
same,percentage of cells with GFP-MIZ-1 localized in the cytoplasm,[4]; co-transfected with FLAG empty vector,36.9%
same,percentage of cells with GFP-MIZ-1 localized in the cytoplasm,[4]; co-transfected with SIRT2-FLAG wild-type,11.2%
same,percentage of cells with GFP-MIZ-1 localized in the cytoplasm,[4]; co-transfected with catalytically inactive SIRT2-FLAG N168A,35.3%
NC(=O)c1cccnc1 [nicotinamide],HDAC activity of SIRT2,"SIRT2 [2]; increasing concentrations of nicotinamide, 156 μM to 20 mM",dose dependent decrease
same,inhibition of SIRT1,SIRT1 protein,effective inhibitor
same,tubulin deacetylation by SIRT2,SIRT2 [3]; 5 mM nicotinamide,completely inhibited
COC(=O)Nc1nc2ccc(C(=O)c3cccs3)cc2[nH]1 [nocodazole],acetylation state of tubulin,[5],tubulin deacetylation
"acetylated tubulin peptide: 9-amino acid synthetic α-tubulin peptide (MPSD(AcK)TIGG), acetylated on lysine-40 (MPSDK(Ac)TIGG)",V/K,recombinant Hst2p,14.9 M⁻¹ s⁻¹
same,kcat,recombinant Hst2p,0.00254 ± 0.0003 s⁻¹
same,V/K,SIRT2 [6],894 ± 100 M⁻¹ s⁻¹
same,kcat,SIRT2 [6],0.144 ± 0.005 s⁻¹
